Here are results for 8 compounds from patent publication US20260355323A1, “CEREBLON-RECRUITING BCL-XL/BCL-2 DUAL DEGRADERS” (University of Florida Research Foundation, Incorporated, priority 2022, published 2026).

As a reminder, the EC50 is the concentration that produces a half-maximal response.

SMILES strings stand for the structures.

One assay concerns WI-38 NC. Description: Senolytic activity, cell viability (PrestoBlue HS), WI-38 NC. In kind it is cell-based. Conditions: for EC50: Homo sapiens, 72 h. How it is done:
WI-38 and HUVEC cells were incubated with increasing concentrations of degraders for 72 h. Cell viability was measured using PrestoBlue HS cell viability reagent.

The test system of assay [1] is MOLT-4 acute lymphoblastic leukemia cells. As to the kind of experiment: Cell viability, tetrazolium-based MTS assay, MOLT-4. Conditions: Homo sapiens, MOLT-4, 48 h; read-out: Anti-Cancer Activity EC50 (48 hr), MOLT-4. The protocol: (§1) Acute lymphoblastic leukemia cells (MOLT-4 and RS4;11) were incubated with increasing concentrations of Bcl-xL/Bcl-2 degraders for 48 h. Cell viability was measured by tetrazolium-based MTS assay.
In general terms: Tetrazolium assays rely on reduction of a dye to a coloured formazan, in cell work by metabolically active cells.

Assay [2] has as its system RS4;11 acute lymphoblastic leukemia cells. As to the kind of experiment: Cell viability, tetrazolium-based MTS assay, RS4;11. As to conditions: Homo sapiens, RS4;11, 48 h, read-out: Anti-Cancer Activity EC50 (48 hr), RS4. The protocol: as §1

Turning to `C[C@@]1(CN2CCC(CCc3ccc4c(c3)CN(C3CCC(=O)NC3=O)C4=O)CC2)CCC(c2ccc(Cl)cc2)=C(CN2CCN(c3ccc(C(=O)NS(=O)(=O)c4ccc(N[C@H](CCN5CCCOCC5)CSc5ccccc5)c(S(=O)(=O)C(F)(F)F)c4)cc3)CC2)C1` (stereo partly drawn) [Compound 46, N-((4-(((R)-4-(1,4-oxazepan-4-yl)-1-(phenylthio)butan-2-yl)amino)-3-((trifluoromethyl)sulfonyl)phenyl)sulfonyl)-4-(4-(((4R)-4′-chloro-4-((4-(2-(2-(2,6-dioxopiperidin-3-yl)-1-oxoisoindolin-5-yl)ethyl)piperidin-1-yl)methyl)-4-methyl-3,4,5,6-tetrahydro-[1,1′-biphenyl]-2-yl)methyl)piperazin-1-yl)benzamide], the EC50 is over 10000 nM in the assay with WI-38 NC, under 1 nM in assay [1] and under 1 nM in assay [2].

For `CC1CN(c2ccc3c(c2)CN(C2CCC(=O)NC2=O)C3=O)CC(C)N1CC1CCN(C[C@]2(C)CCC(c3ccc(Cl)cc3)=C(CN3CCN(c4ccc(C(=O)NS(=O)(=O)c5ccc(N[C@H](CCN6CCCOCC6)CSc6ccccc6)c(S(=O)(=O)C(F)(F)F)c5)cc4)CC3)C2)CC1` (stereo partly drawn) [Compound 50, N-((4-(((R)-4-(1,4-oxazepan-4-yl)-1-(phenylthio)butan-2-yl)amino)-3-((trifluoromethyl)sulfonyl)phenyl)sulfonyl)-4-(4-(((4R)-4′-chloro-4-((4-((4-(2-(2,6-dioxopiperidin-3-yl)-1-oxoisoindolin-5-yl)-2,6-dimethylpiperazin-1-yl)methyl)piperidin-1-yl)methyl)-4-methyl-3,4,5,6-tetrahydro-[1,1′-biphenyl]-2-yl)methyl)piperazin-1-8 yl)benzamide], the “Senolytic Activity EC50 (72 hr), WI-38 NC” value in the assay on WI-38 NC was “++ (100-10 μM)”. The EC50 in assay [1] and in assay [2] was under 1 nM throughout.

`C[C@@]1(CN2CCC(CCN3CCN(c4ccc5c(c4)CN(C4CCC(=O)NC4=O)C5=O)CC3)CC2)CCC(c2ccc(Cl)cc2)=C(CN2CCN(c3ccc(C(=O)NS(=O)(=O)c4ccc(N[C@H](CCN5CCCOCC5)CSc5ccccc5)c(S(=O)(=O)C(F)(F)F)c4)cc3)CC2)C1` (stereo partly drawn) [Compound 65, N-((4-(((R)-4-(1,4-oxazepan-4-yl)-1-(phenylthio)butan-2-yl)amino)-3-((trifluoromethyl)sulfonyl)phenyl)sulfonyl)-4-(4-(((4R)-4′-chloro-4-((4-(2-(4-(2-(2,6-dioxopiperidin-3-yl)-1-oxoisoindolin-5-yl)piperazin-1-yl)ethyl)piperidin-1-yl)methyl)-4-methyl-3,4,5,6-tetrahydro-[1,1′-biphenyl]-2-yl)methyl)piperazin-1-yl)benzamide]: the half-maximal effective concentration (EC50) is over 10000 nM in the assay on WI-38 NC, under 1 nM in assay [1] and under 1 nM in assay [2].

As to `C[C@@]1(CN2CCN(c3ccc4c(c3)CN(C3CCC(=O)NC3=O)C4=O)CC2)CCC(c2ccc(Cl)cc2)=C(CN2CCN(c3ccc(C(=O)NS(=O)(=O)c4ccc(N[C@H](CCN5CCCOCC5)CSc5ccccc5)c(S(=O)(=O)C(F)(F)F)c4)cc3)CC2)C1` (stereo partly drawn) [Compound 127, N-((4-(((R)-4-(1,4-oxazepan-4-yl)-1-(phenylthio)butan-2-yl)amino)-3-((trifluoromethyl)sulfonyl)phenyl)sulfonyl)-4-(4-(((4R)-4′-chloro-4-((4-(2-(2,6-dioxopiperidin-3-yl)-1-oxoisoindolin-5-yl)piperazin-1-yl)methyl)-4-methyl-3,4,5,6-tetrahydro-[1,1′-biphenyl]-2-yl)methyl)piperazin-1-yl)benzamide], the EC50 in the assay on WI-38 NC was over 10000 nM; in assay [1] it was under 1 nM; in assay [2] it was under 1 nM.

For the compound `CC1CN(c2ccc3c(c2)CN(C2CCC(=O)NC2=O)C3=O)CC(C)N1CC1CN(C[C@]2(C)CCC(c3ccc(Cl)cc3)=C(CN3CCN(c4ccc(C(=O)NS(=O)(=O)c5ccc(N[C@H](CCN6CCCOCC6)CSc6ccccc6)c(S(=O)(=O)C(F)(F)F)c5)cc4)CC3)C2)C1` (stereo partly drawn) [Compound 129, N-((4-(((R)-4-(1,4-oxazepan-4-yl)-1-(phenylthio)butan-2-yl)amino)-3-((trifluoromethyl)sulfonyl)phenyl)sulfonyl)-4-(4-(((4R)-4′-chloro-4-((3-((4-(2-(2,6-dioxopiperidin-3-yl)-1-oxoisoindolin-5-yl)-2,6-dimethylpiperazin-1-yl)methyl)azetidin-1-yl)methyl)-4-methyl-3,4,5,6-tetrahydro-[1,1′-biphenyl]-2-yl)methyl)piperazin-1-yl)benzamide], the concentration giving a half-maximal response (EC50) is over 10000 nM with WI-38 NC, under 1 nM in assay [1] and under 1 nM in assay [2].

With `C[C@@]1(CN2CCC(CN3CC4CC3CN4c3ccc4c(c3)CN(C3CCC(=O)NC3=O)C4=O)CC2)CCC(c2ccc(Cl)cc2)=C(CN2CCN(c3ccc(C(=O)NS(=O)(=O)c4ccc(N[C@H](CCN5CCCOCC5)CSc5ccccc5)c(S(=O)(=O)C(F)(F)F)c4)cc3)CC2)C1` (stereo partly drawn) [Compound 130, N-((4-(((R)-4-(1,4-oxazepan-4-yl)-1-(phenylthio)butan-2-yl)amino)-3-((trifluoromethyl)sulfonyl)phenyl)sulfonyl)-4-(4-(((4R)-4′-chloro-4-((4-((5-(2-(2,6-dioxopiperidin-3-yl)-1-oxoisoindolin-5-yl)-2,5-diazabicyclo[2.2.1]heptan-2-yl)methyl)piperidin-1-yl)methyl)-4-methyl-3,4,5,6-tetrahydro-[1,1′-biphenyl]-2-yl)methyl)piperazin-1-yl)benzamide], the EC50 with WI-38 NC is over 10000 nM; in assay [1] it was 1 to 10 nM; in assay [2], 1 to 10 nM.

As to `C[C@@]1(CN2CC(CN3CC4CC3CN4c3ccc4c(c3)CN(C3CCC(=O)NC3=O)C4=O)C2)CCC(c2ccc(Cl)cc2)=C(CN2CCN(c3ccc(C(=O)NS(=O)(=O)c4ccc(N[C@H](CCN5CCCOCC5)CSc5ccccc5)c(S(=O)(=O)C(F)(F)F)c4)cc3)CC2)C1` (stereo partly drawn) [Compound 131, N-((4-(((R)-4-(1,4-oxazepan-4-yl)-1-(phenylthio)butan-2-yl)amino)-3-((trifluoromethyl)sulfonyl)phenyl)sulfonyl)-4-(4-(((4R)-4′-chloro-4-((3-((5-(2-(2,6-dioxopiperidin-3-yl)-1-oxoisoindolin-5-yl)-2,5-diazabicyclo[2.2.1]heptan-2-yl)methyl)azetidin-1-yl)methyl)-4-methyl-3,4,5,6-tetrahydro-[1,1′-biphenyl]-2-yl)methyl)piperazin-1-yl)benzamide], the figures for the half-maximal effective concentration (EC50) (with WI-38 NC; in assay [1]; in assay [2]) were over 10000 nM, 1 to 10 nM and 1 to 10 nM, respectively.

Take `C[C@@]1(CN2CCC(C#Cc3ccc4c(c3)CN(C3CCC(=O)NC3=O)C4=O)CC2)CCC(c2ccc(Cl)cc2)=C(CN2CCN(c3ccc(C(=O)NS(=O)(=O)c4ccc(N[C@H](CCN5CCCOCC5)CSc5ccccc5)c(S(=O)(=O)C(F)(F)F)c4)cc3)CC2)C1` (stereo partly drawn) [Compound 132, N-((4-(((R)-4-(1,4-oxazepan-4-yl)-1-(phenylthio)butan-2-yl)amino)-3-((trifluoromethyl)sulfonyl)phenyl)sulfonyl)-4-(4-(((4R)-4′-chloro-4-((4-((2-(2,6-dioxopiperidin-3-yl)-1-oxoisoindolin-5-yl)ethynyl)piperidin-1-yl)methyl)-4-methyl-3,4,5,6-tetrahydro-[1,1′-biphenyl]-2-yl)methyl)piperazin-1-yl)benzamide]: the 50% effective concentration (EC50) is over 10000 nM in the assay with WI-38 NC, under 1 nM in assay [1] and 1 to 10 nM in assay [2].
